Data set [1] concerns the target T1, NaDC1 (Homo sapiens, UniProt Q13183, I550V).
T1 construct: gene SLC13A2; full length, homodimer; N-terminal FLAG purified from HEK293F (structures, natural variant I550V); GFP and FLAG tagged in HEK293T for currents
T1 sequence (Q13183 1-592 I550V): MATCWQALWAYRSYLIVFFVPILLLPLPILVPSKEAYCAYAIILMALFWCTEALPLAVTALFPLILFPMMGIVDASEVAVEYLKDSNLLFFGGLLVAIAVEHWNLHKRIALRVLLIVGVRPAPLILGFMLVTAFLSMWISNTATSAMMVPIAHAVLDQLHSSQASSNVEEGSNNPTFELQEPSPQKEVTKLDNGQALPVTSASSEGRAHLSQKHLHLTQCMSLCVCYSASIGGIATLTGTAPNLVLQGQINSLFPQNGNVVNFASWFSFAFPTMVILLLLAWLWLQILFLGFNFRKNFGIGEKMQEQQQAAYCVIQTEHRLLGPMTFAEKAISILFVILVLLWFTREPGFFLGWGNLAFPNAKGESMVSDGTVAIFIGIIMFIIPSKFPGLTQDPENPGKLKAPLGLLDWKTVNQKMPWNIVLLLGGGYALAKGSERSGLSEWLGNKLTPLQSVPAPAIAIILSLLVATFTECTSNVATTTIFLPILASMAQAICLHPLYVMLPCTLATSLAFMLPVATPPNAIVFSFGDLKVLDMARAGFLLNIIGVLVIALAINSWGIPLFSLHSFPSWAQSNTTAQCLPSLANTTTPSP
As to the kind of experiment: cryo-EM structure ([…] Å). The class given is binding. The settings on record: 400 μM ACA; allosteric site of TM2, L10, TM11, TM6a.

The target of data set [2] is T2, NaDC1 (Homo sapiens, UniProt Q13183).
T2 sequence (Q13183 1-592): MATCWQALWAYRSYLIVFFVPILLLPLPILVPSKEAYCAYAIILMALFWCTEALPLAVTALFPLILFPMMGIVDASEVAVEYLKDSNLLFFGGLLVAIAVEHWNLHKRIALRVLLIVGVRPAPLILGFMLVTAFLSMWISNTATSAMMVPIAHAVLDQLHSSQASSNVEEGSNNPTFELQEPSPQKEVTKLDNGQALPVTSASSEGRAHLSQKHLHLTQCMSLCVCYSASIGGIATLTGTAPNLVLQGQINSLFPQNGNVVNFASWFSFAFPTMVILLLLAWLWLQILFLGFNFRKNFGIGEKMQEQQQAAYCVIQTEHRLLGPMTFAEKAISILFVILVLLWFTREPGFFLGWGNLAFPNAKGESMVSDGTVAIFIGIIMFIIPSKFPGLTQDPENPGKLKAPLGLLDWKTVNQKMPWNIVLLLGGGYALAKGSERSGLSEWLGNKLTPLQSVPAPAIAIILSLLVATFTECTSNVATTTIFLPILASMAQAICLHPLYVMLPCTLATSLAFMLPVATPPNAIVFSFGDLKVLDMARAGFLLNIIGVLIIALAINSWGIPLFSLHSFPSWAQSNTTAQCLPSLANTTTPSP
Kind of data set: whole-cell patch clamp, transfected HEK293T. The data set is classed as cell-based. More on the design: gene SLC13A2; full length, homodimer; GFP and FLAG tagged in HEK293T for currents. To be noted: citrate-induced current; reversible on washout. In general terms: The patch-clamp technique gives a direct electrical read-out from membranes.

Another data set concerns the target T3, NaS1 (Homo sapiens, UniProt Q9BZW2).
T3 construct: gene SLC13A1; full length, N-terminal FLAG tag, HEK293F membranes, purified in GDN, homodimer
T3 sequence (Q9BZW2 1-595): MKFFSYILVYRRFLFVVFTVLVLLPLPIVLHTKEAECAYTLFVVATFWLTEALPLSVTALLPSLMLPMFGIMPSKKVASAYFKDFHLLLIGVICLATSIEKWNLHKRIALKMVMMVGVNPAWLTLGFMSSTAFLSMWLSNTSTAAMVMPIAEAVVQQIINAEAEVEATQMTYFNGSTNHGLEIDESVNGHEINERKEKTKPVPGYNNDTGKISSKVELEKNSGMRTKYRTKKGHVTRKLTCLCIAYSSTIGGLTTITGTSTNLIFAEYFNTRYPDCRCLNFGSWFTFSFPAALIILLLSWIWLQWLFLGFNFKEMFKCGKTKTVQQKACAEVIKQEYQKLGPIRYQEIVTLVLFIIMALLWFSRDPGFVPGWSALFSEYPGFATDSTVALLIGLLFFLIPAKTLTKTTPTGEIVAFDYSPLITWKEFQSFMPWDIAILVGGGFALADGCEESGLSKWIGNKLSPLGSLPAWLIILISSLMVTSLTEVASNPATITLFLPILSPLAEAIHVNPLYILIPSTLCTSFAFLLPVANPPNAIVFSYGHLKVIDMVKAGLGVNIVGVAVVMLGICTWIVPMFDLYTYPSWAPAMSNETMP
Kind of data set: cryo-EM structure (IN/IN […] Å, IN/OUT […] Å). The data set is classed as binding. The settings on record: substrate site; Na+ bound at Na1 in IN/IN.

Data set [3] concerns the molecule itself. Kind of data set: cryo-EM structure; single-particle cryo-EM of purified NaS1 in 25 mM tris pH 8.0, 150 mM NaCl, 0.01% GDN; apo and sulfate-bound; IN/IN and IN/OUT dimers.
Data set [4] deals with the molecule itself. Kind of data set: cryo-EM structure; single-particle cryo-EM of purified NaDC1 in 20 mM Hepes pH 7.4, 150 mM NaCl, 0.02% GDN; apo, with 10 mM sodium citrate, or with 400 uM ACA; OUT/OUT dimer.

As for `CCCCCc1ccc(/C=C/C(=O)Nc2ccccc2C(=O)O)cc1` [ACA], the “cryo-EM structure (3.3 Å)” value at NaDC1 [1] is listed as “the cryo-EM structure of NaDC1 bound with ACA was solved”. Further, the “whole-cell patch clamp, transfected HEK293T” value on NaDC1 [2] is “A significant decrease in citrate-induced current was detected when ACA was added”.

Take `O=S(=O)(O)O` [sulfate]: the “cryo-EM structure (IN/IN 3.1 Å, IN/OUT 3.2 Å)” value at NaS1 is on record as “there is obvious sulfate density around the classical substrate binding pocket of NaS1_sulfate_IN/IN”.

B1: human NaS1 (SLC13A1), sodium ion-sulfate cotransporter 1 (natural protein, UniProt Q9BZW2 1-595, looked up)
chain: MKFFSYILVYRRFLFVVFTVLVLLPLPIVLHTKEAECAYTLFVVATFWLTEALPLSVTALLPSLMLPMFGIMPSKKVASAYFKDFHLLLIGVICLATSIEKWNLHKRIALKMVMMVGVNPAWLTLGFMSSTAFLSMWLSNTSTAAMVMPIAEAVVQQIINAEAEVEATQMTYFNGSTNHGLEIDESVNGHEINERKEKTKPVPGYNNDTGKISSKVELEKNSGMRTKYRTKKGHVTRKLTCLCIAYSSTIGGLTTITGTSTNLIFAEYFNTRYPDCRCLNFGSWFTFSFPAALIILLLSWIWLQWLFLGFNFKEMFKCGKTKTVQQKACAEVIKQEYQKLGPIRYQEIVTLVLFIIMALLWFSRDPGFVPGWSALFSEYPGFATDSTVALLIGLLFFLIPAKTLTKTTPTGEIVAFDYSPLITWKEFQSFMPWDIAILVGGGFALADGCEESGLSKWIGNKLSPLGSLPAWLIILISSLMVTSLTEVASNPATITLFLPILSPLAEAIHVNPLYILIPSTLCTSFAFLLPVANPPNAIVFSYGHLKVIDMVKAGLGVNIVGVAVVMLGICTWIVPMFDLYTYPSWAPAMSNETMP
notes: full-length human SLC13A1 (NaS1), NP_071889.2, UniProtKB Q9BZW2; No removal of the FLAG tag is described; the protein was captured on anti-FLAG resin and eluted with FLAG peptide; not shown: FLAG, N-terminal, kept
For B1, in data set [3], the binding result is reported as “binds”.

B2: human NaDC1 (SLC13A2), sodium ion-dicarboxylate cotransporter 1, natural variant I550V (natural protein, UniProt Q13183-1 1-592, looked up)
chain: MATCWQALWAYRSYLIVFFVPILLLPLPILVPSKEAYCAYAIILMALFWCTEALPLAVTALFPLILFPMMGIVDASEVAVEYLKDSNLLFFGGLLVAIAVEHWNLHKRIALRVLLIVGVRPAPLILGFMLVTAFLSMWISNTATSAMMVPIAHAVLDQLHSSQASSNVEEGSNNPTFELQEPSPQKEVTKLDNGQALPVTSASSEGRAHLSQKHLHLTQCMSLCVCYSASIGGIATLTGTAPNLVLQGQINSLFPQNGNVVNFASWFSFAFPTMVILLLLAWLWLQILFLGFNFRKNFGIGEKMQEQQQAAYCVIQTEHRLLGPMTFAEKAISILFVILVLLWFTREPGFFLGWGNLAFPNAKGESMVSDGTVAIFIGIIMFIIPSKFPGLTQDPENPGKLKAPLGLLDWKTVNQKMPWNIVLLLGGGYALAKGSERSGLSEWLGNKLTPLQSVPAPAIAIILSLLVATFTECTSNVATTTIFLPILASMAQAICLHPLYVMLPCTLATSLAFMLPVATPPNAIVFSFGDLKVLDMARAGFLLNIIGVLVIALAINSWGIPLFSLHSFPSWAQSNTTAQCLPSLANTTTPSP
notes: full-length human SLC13A2 (NaDC1), NP_003975.1, UniProtKB Q13183, with the natural variant I550V that was used to determine the structures; Homodimer in the cryo-EM structures (OUT/OUT; No removal of the FLAG tag is described; the protein was captured on anti-FLAG resin and eluted with FLAG peptide; also called NaDC1_apo; NaDC1_citrate; source: extracted in DDM/CHS, exchanged to GDN); not shown: …
As for B2, in data set [4], the binding result was “binds”.
